Results from US20250257336A1, “ISOLATED OR ENGINEERED POLYPEPTIDES, MICROORGANISMS AS WELL AS METHOD FOR SYNTHESIZING POLYPHENOLIC PHYTOCHEMICALS PHOSPHATE DERIVATIVE USING THE POLYPEPTIDES OR MICROORGANISMS” (National Taiwan University, priority 2021, published 2025).

B1: K378A: site-directed mutant of the PPS of interest, Lys378 substituted with Ala (protein)
chain: MKKRGVSNMYSVLFRQAEESSQLAGAKGMNLIKLTKHGLPVPDGFIIQTNALARFMEDNQLQETSENVESGIISGTFSDELKDELTSSFYKLRESYRSVAVRSSSASEDLEGASFAGQYETYLNIKTEEEFLAKVKECWASFFSGRVSSYKKKMNNQIAEPLMGIVVQGLIDSEMSGVIFSRNPVTHDDRELLISASYGLGEAVVSGSVTPDTFIVNKSSFEIQKEIGAKEIYMESAAEGIAEKETSEDMRSRFCLTDEQVIELAEITKKTEDLYGYPVDIEFGIADHQIYLLQARPITTIDQDKKAAEEKRSFMITDTDMNDFWLNMESNIEGPVSPLFSSFIVPALEYGLKKSMQKFPIGVVVDEVKLYRGHIYSANQGGQQPPSEDCGKELFPILSEHMYDIINHTYLPFYRTLDQLAQTEHTAESALDAFQKLKAFYLTAYEEHFNIVFPQILLTNKLQAMYQDIQGESENAHFYEMLTGKMNKSLETDRCLWLFSMEVQENPNLLTIFENNKPEQLQEKLEQTDEGRHFLKNVHEFLQEYGWRSVKSHDLIEQIWVENPYFALANIQNYVRNGYHFDNEFQKTKEKREKLYNEFLENIEDPGLRTEFDRYYQWTLNSANIKDDHHFYIDAMLDAKARIFLLKIGELLAENGVIQDREDLWFLYDDEVEQALLHPVSLQEKAEKRRQIFHEYELAQAPAYLGTPTKEQLKAAEEIVGAVIEDEKNTENHIFGIAASSGIATGPVKIIRDANEFSQFAPGDVLVCKMTTPLWTSLFQDAKAIITDTGGILSHAAIIAREYGIPAVLGTRTATERLRDGDIITVDGSSGKITVVSRS

Key:
[1] = D7P vs daidzein, G7P vs genistein; produced with Bacillus subtilis BCRC 80517; cited from earlier work
[2] = enzymatic activity of the PPS of interest and its protein mutant strains, genistein as substrate (G7P formation, HPLC); format: biochemical; conditions: Mg2+/ATP, 40° C., 10 minutes, pH 7.8, FIG. 30
Procedure: After vibration-based mixing and centrifugation (13,000 rpm, 4° C., 5 minutes), the resulting supernatant was collected, diluted, and then analyzed by HPLC. The activity unit was defined as the amount of enzyme required to yield 1 nmol of product per unit time.
Once an enzyme was prepared, its protein concentration was diluted to 0.1 mg/mL. The enzyme and the enzyme reaction liquid were mixed at a ratio of 1:1 (v/v) and were allowed to react at 40° C. for 10 minutes, at the end of which methanol was added to dilute the protein tenfold and thereby terminate the reaction. The changes in concentration of genistein (GEN) and G7P (a product of GEN phosphorylation) were analyzed. The catalytic activity of the PPS of interest in the present invention and its mutant strains were subsequently calculated and compared, as shown in FIG. 30. […] The activity test results of other protein mutant strains show no total loss of activity but a trend of decrease in activity. […] However, while the aforesaid important catalytic sites in the active domain for stabilizing the phosphate group were inferred with relatively great certainty, the amino acids in Arm1 either had relatively poor prediction results or had important catalytic sites composed of non-polar amino acids (which when substituted with Ala produce little change in property) such that the combined use of site-directed mutagenesis and enzymatic activity determination lacked accuracy.

Row | Molecule | water solubility relative to daidzein and genistein, respectively [1] | catalytic activity (relative specific activity) compared with the PPS of interest [2]
1 | O=c1c(-c2ccc(O)cc2)coc2cc(OP(=O)(O)O)cc(O)c12 [G7P, genistein 7-O-phosphate] | a hundred thousand times | –
2 | O=c1c(-c2ccc(O)cc2)coc2cc(OP(=O)(O)O)ccc12 [D7P, daidzein 7-O-phosphate] | a hundred thousand times | –
3 | B1 | – | relatively significant decrease in activity
